Laboratory results: ChEMBL document CHEMBL3585312, “Anti-MRSA activity of isoplagiochin-type macrocyclic bis(bibenzyl)s is mediated through cell membrane damage” (2015)
In brackets after ≈: the same amount, converted by molar mass. Activity calls are given as the source filed them. No cut-off for these calls is given here.

Tests used:
Assay type in all cases: functional
Staphylococcus aureus [1] = experiment: Induction of methicillin-resistant Staphylococcus aureus N315 membrane damage using ethidium bromide assessed as fluorescence intensity at 100 ug/ml by ethidium bromide outflow assay
Staphylococcus aureus [2] = experiment: Induction of methicillin-resistant Staphylococcus aureus N315 membrane damage assessed as decrease in K+ concentration at 10 ug/ml after 90 mins by coupled plasma optical emission spectrometry
Staphylococcus aureus [3] = experiment: Induction of methicillin-resistant Staphylococcus aureus N315 membrane damage using ethidium bromide assessed as fluorescence intensity at 100 ug/ml by ethidium bromide inflow assay
Staphylococcus aureus [4] = experiment: Induction of methicillin-resistant Staphylococcus aureus N315 membrane damage assessed as increase in Na+ concentration at 10 ug/ml after 90 mins by coupled plasma optical emission spectrometry
Staphylococcus aureus [5] = experiment: Induction of methicillin-resistant Staphylococcus aureus N315 membrane damage using ethidium bromide assessed as fluorescence intensity at 10 ug/ml by ethidium bromide outflow assay
Staphylococcus aureus [6] = experiment: Induction of methicillin-resistant Staphylococcus aureus N315 membrane damage using ethidium bromide assessed as fluorescence intensity at 10 ug/ml by ethidium bromide inflow assay
Staphylococcus aureus [7] = experiment: Antimicrobial activity against methicillin-resistant Staphylococcus aureus N315 after 24 hrs by broth microdilution method; conditions: N315, 24 h

Row | SMILES | Activity (Staphylococcus aureus [1]) | Activity (Staphylococcus aureus [2]) | Activity (Staphylococcus aureus [3]) | Activity (Staphylococcus aureus [4]) | Activity (Staphylococcus aureus [5]) | Activity (Staphylococcus aureus [6]) | MIC (Staphylococcus aureus [7]) [µg/mL]
1 | Oc1ccc2c(c1)CCc1ccc(cc1)-c1cccc(c1)CCc1ccc-2c(O)c1 | inactive | inactive | inactive | inactive | – | – | –
2 | Oc1ccc2c(c1)CCc1ccc(cc1)Oc1cccc(c1)CCc1ccc-2c(O)c1 | – | – | – | – | Active | Active | –
3 | Oc1ccc2c(c1)CCc1cccc(c1)-c1cccc(c1)CCc1ccc-2c(O)c1 | – | Active | – | Active | Active | Active | 0.5 (≈ 1.27 µM)
4 | Oc1ccc2c(c1)CCc1ccccc1-c1cccc(c1)CCc1ccc-2c(O)c1 | – | – | – | – | – | – | 2 (≈ 5.1 µM)
